# In PubChem BioAssay AID1963959 (Molecular Pharmacology Branch, DTP, NCI, 2024):
# System: T-47D spheroids with HUVEC/MSC, viability
# Assay: Anticancer human tumor T-47D cell line growth inhibition [PI3K];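 note: spheroids exposed to agents for seven days before reading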;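 for viability, T/C: percent of DMSO vehicle control luminescence so 100% = untreated growth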
# Settings: for IC50: curve of first compound; for viability, T/C: stronger effect = lower value
# Outline: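 Complex 3D spheroids (cancer cells + endothelial HUVEC + mesenchymal stem cells); drug pairs of targeted agent x inavolisib/alpelisib/duvelisib/copanlisib; half-log series from ~Cmax, max 10 microM if Cmax unknown; endpoint viability.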
# [1] = second compound 0.00316 µM, first compound 0.00316 µM
# [2] = second compound 0.00316 µM, first compound 0.01 µM
# [3] = second compound 0.00316 µM, first compound 0.0316 µM
# [4] = second compound 0.00316 µM, first compound 0.1 µM
# [5] = second compound 0.01 µM, first compound 0.00316 µM
# [6] = second compound 0.01 µM, first compound 0.01 µM
# [7] = second compound 0.01 µM, first compound 0.0316 µM
# [8] = second compound 0.01 µM, first compound 0.1 µM
# [9] = second compound 0.0316 µM, first compound 0.00316 µM
# [10] = second compound 0.0316 µM, first compound 0.01 µM
# [11] = second compound 0.0316 µM, first compound 0.0316 µM
# [12] = second compound 0.0316 µM, first compound 0.1 µM
# [13] = second compound 0.1 µM, first compound 0.00316 µM
# [14] = second compound 0.1 µM, first compound 0.01 µM
# [15] = second compound 0.1 µM, first compound 0.0316 µM
# [16] = second compound 0.1 µM, first compound 0.1 µM
# [17] = second compound 0.316 µM, first compound 0.00316 µM
# [18] = second compound 0.316 µM, first compound 0.01 µM
# [19] = second compound 0.316 µM, first compound 0.0316 µM
# [20] = second compound 0.316 µM, first compound 0.1 µM
# [21] = second compound 1 µM, first compound 0.00316 µM
# [22] = second compound 1 µM, first compound 0.01 µM
# [23] = second compound 1 µM, first compound 0.0316 µM
# [24] = second compound 1 µM, first compound 0.1 µM
# [25] = second compound 0.00316 µM, first compound 0.316 µM
# [26] = second compound 0.00316 µM, first compound 1 µM
# [27] = second compound 0.01 µM, first compound 0.316 µM
# [28] = second compound 0.01 µM, first compound 1 µM
# [29] = second compound 0.0316 µM, first compound 0.316 µM
# [30] = second compound 0.0316 µM, first compound 1 µM
# [31] = second compound 0.1 µM, first compound 0.316 µM
# [32] = second compound 0.1 µM, first compound 1 µM
# [33] = second compound 0.316 µM, first compound 0.316 µM
# [34] = second compound 0.316 µM, first compound 1 µM
# [35] = second compound 1 µM, first compound 0.316 µM
# [36] = second compound 1 µM, first compound 1 µM
smiles,measurement,setting,value
Cn1ncnc1[C@H]1c2n[nH]c(=O)c3cc(F)cc(c23)N[C@@H]1c1ccc(F)cc1 + COc1c(OCCCN2CCOCC2)ccc2c3n(c(=NC(=O)c4cnc(N)nc4)nc12)CCN3,IC50,second compound 0.00316 µM,> 100 nM
same,IC50,second compound 0.01 µM,> 100 nM
same,IC50,second compound 0.0316 µM,> 100 nM
same,IC50,second compound 0.1 µM,< 0.316 nM
same,IC50,second compound 0.316 µM,< 0.316 nM
same,IC50,second compound 1 µM,< 0.316 nM
same,"viability, T/C","second compound 0.00316 µM, first compound 0.000316 µM",102%
same,"viability, T/C","second compound 0.00316 µM, first compound 0.001 µM",87.4%
same,"viability, T/C",[1],112%
same,"viability, T/C",[2],104%
same,"viability, T/C",[3],109%
same,"viability, T/C",[4],101%
same,"viability, T/C","second compound 0.01 µM, first compound 0.000316 µM",114%
same,"viability, T/C","second compound 0.01 µM, first compound 0.001 µM",83.9%
same,"viability, T/C",[5],93.7%
same,"viability, T/C",[6],79.3%
same,"viability, T/C",[7],99.5%
same,"viability, T/C",[8],94.1%
same,"viability, T/C","second compound 0.0316 µM, first compound 0.000316 µM",72.9%
same,"viability, T/C","second compound 0.0316 µM, first compound 0.001 µM",72.8%
same,"viability, T/C",[9],85%
same,"viability, T/C",[10],71.4%
same,"viability, T/C",[11],75.1%
same,"viability, T/C",[12],64.8%
same,"viability, T/C","second compound 0.1 µM, first compound 0.000316 µM",40.9%
same,"viability, T/C","second compound 0.1 µM, first compound 0.001 µM",47.6%
same,"viability, T/C",[13],41.2%
same,"viability, T/C",[14],34.1%
same,"viability, T/C",[15],40.7%
same,"viability, T/C",[16],39%
same,"viability, T/C","second compound 0.316 µM, first compound 0.000316 µM",18.9%
same,"viability, T/C","second compound 0.316 µM, first compound 0.001 µM",20.8%
same,"viability, T/C",[17],15.2%
same,"viability, T/C",[18],17.1%
same,"viability, T/C",[19],14.8%
same,"viability, T/C",[20],15.1%
same,"viability, T/C","second compound 1 µM, first compound 0.000316 µM",5.24%
same,"viability, T/C","second compound 1 µM, first compound 0.001 µM",6.61%
same,"viability, T/C",[21],7.38%
same,"viability, T/C",[22],7.19%
same,"viability, T/C",[23],5.03%
same,"viability, T/C",[24],6.71%
CCN1CCN(Cc2ccc(Nc3ncc(F)c(-c4cc(F)c5nc(C)n(C(C)C)c5c4)n3)nc2)CC1 + CC(Nc1ccc2c(c1)OCCn1cc(N3C(=O)OCC3C(F)F)nc1-2)C(N)=O,IC50,second compound 0.00316 µM,> 1000 nM
same,IC50,second compound 0.01 µM,> 1000 nM
same,IC50,second compound 0.0316 µM,> 1000 nM
same,IC50,second compound 0.1 µM,> 1000 nM
same,IC50,second compound 0.316 µM,17.3 nM
same,IC50,second compound 1 µM,< 3.16 nM
same,"viability, T/C",[1],107%
same,"viability, T/C",[2],101%
same,"viability, T/C",[3],91%
same,"viability, T/C",[4],95.5%
same,"viability, T/C",[25],91.6%
same,"viability, T/C",[26],91.2%
same,"viability, T/C",[5],93%
same,"viability, T/C",[6],101%
same,"viability, T/C",[7],94.4%
same,"viability, T/C",[8],86.2%
same,"viability, T/C",[27],76.5%
same,"viability, T/C",[28],82.5%
same,"viability, T/C",[9],88.2%
same,"viability, T/C",[10],98%
same,"viability, T/C",[11],81.8%
same,"viability, T/C",[12],90%
same,"viability, T/C",[29],72.6%
same,"viability, T/C",[30],91%
same,"viability, T/C",[13],83.3%
same,"viability, T/C",[14],90.6%
same,"viability, T/C",[15],71.5%
same,"viability, T/C",[16],58.9%
same,"viability, T/C",[31],56.5%
same,"viability, T/C",[32],73.8%
same,"viability, T/C",[17],58.2%
same,"viability, T/C",[18],49.9%
same,"viability, T/C",[19],51.2%
same,"viability, T/C",[20],48.8%
same,"viability, T/C",[33],47%
same,"viability, T/C",[34],49.1%
same,"viability, T/C",[21],49.7%
same,"viability, T/C",[22],36.8%
same,"viability, T/C",[23],35.7%
same,"viability, T/C",[24],32.5%
same,"viability, T/C",[35],37.2%
same,"viability, T/C",[36],44.8%
CC(C)NCC(C(=O)N1CCN(c2ncnc3c2C(C)CC3O)CC1)c1ccc(Cl)cc1 (stereo unspecified) + COc1c(OCCCN2CCOCC2)ccc2c3n(c(=NC(=O)c4cnc(N)nc4)nc12)CCN3,IC50,second compound 0.00316 µM,5280 nM
same,IC50,second compound 0.01 µM,1600 nM
same,IC50,second compound 0.0316 µM,324 nM
same,IC50,second compound 0.1 µM,< 31.6 nM
same,IC50,second compound 0.316 µM,< 31.6 nM
same,IC50,second compound 1 µM,< 31.6 nM
same,"viability, T/C",[3],92.8%
same,"viability, T/C",[4],71%
same,"viability, T/C",[25],74.3%
same,"viability, T/C",[26],64.8%
same,"viability, T/C","second compound 0.00316 µM, first compound 3.16 µM",50.7%
same,"viability, T/C","second compound 0.00316 µM, first compound 10 µM",45.9%
same,"viability, T/C",[7],90.7%
same,"viability, T/C",[8],74.2%
same,"viability, T/C",[27],64%
same,"viability, T/C",[28],53.6%
same,"viability, T/C","second compound 0.01 µM, first compound 3.16 µM",45.3%
same,"viability, T/C","second compound 0.01 µM, first compound 10 µM",38.8%
same,"viability, T/C",[11],69.8%
same,"viability, T/C",[12],70.9%
same,"viability, T/C",[29],50.1%
same,"viability, T/C",[30],45.2%
same,"viability, T/C","second compound 0.0316 µM, first compound 3.16 µM",40.6%
same,"viability, T/C","second compound 0.0316 µM, first compound 10 µM",38.3%
same,"viability, T/C",[15],46.5%
same,"viability, T/C",[16],40.7%
same,"viability, T/C",[31],34.3%
same,"viability, T/C",[32],30.4%
same,"viability, T/C","second compound 0.1 µM, first compound 3.16 µM",30.2%
same,"viability, T/C","second compound 0.1 µM, first compound 10 µM",26.1%
same,"viability, T/C",[19],17.6%
same,"viability, T/C",[20],18.4%
same,"viability, T/C",[33],16%
same,"viability, T/C",[34],17.4%
same,"viability, T/C","second compound 0.316 µM, first compound 3.16 µM",15.1%
same,"viability, T/C","second compound 0.316 µM, first compound 10 µM",15.6%
same,"viability, T/C",[23],5.88%
same,"viability, T/C",[24],5.08%
same,"viability, T/C",[35],4.99%
same,"viability, T/C",[36],5.31%
same,"viability, T/C","second compound 1 µM, first compound 3.16 µM",4.66%
same,"viability, T/C","second compound 1 µM, first compound 10 µM",6.36%
